In PubChem BioAssay (NCI) one finds GI50 and TGI data, which are given here for nine molecules.

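Method: 48-hour compound exposure of cells in 96-well plates, five concentrations, linear interpolation of endpoints. At the GI50, growth is halved. TGI denotes the concentration required for complete inhibition of growth.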 Bounds are passed on as bounds.

Test in all cases: NCI anticancer screen, dose series, 48 h
Test [1] concerns 786-0 renal.
Test [2] relates to MDA-MB-435.
For test [3], the system named is NCI-H226 lung.
The test system of test [4] is NCI-H23 lung.
Test [5] deals with OVCAR-5 ovarian.
Test [6] deals with SR leukemia.
Test [7] deals with T-47D breast.
Test [8] deals with TK-10 renal.

With `c1ccc2nc(Cn3c[n+](Cc4ccc5ccccc5n4)c4ccccc43)ccc2c1`, the GI50 is 4.2 µM in test [1]; 1.63 µM in test [2]; 4.13 µM in test [3]; 1.47 µM in test [4]; 2.43 µM in test [5]; 1.69 µM in test [6]. The results for the GI50 in test [7] and in test [8] were 0.785 µM and 3.49 µM, respectively. Besides, the TGI in test [1] was determined as 16.4 µM; in test [2], 4.37 µM; in test [3], 20.4 µM; in test [4], 10.3 µM; in test [5], 13.7 µM; in test [6] it was 5.48 µM. For the same molecule, the results for the TGI in test [7] and in test [8] were 9.65 µM and 13.3 µM, respectively.

Regarding `CCn1c(-c2nonc2N)nc2cncc(C(=O)N3CCNCC3)c21`, the GI50 in test [1], in test [2], in test [3], in test [4], in test [5] and in test [6] was over 25 µM in each case. The GI50 in test [7] and in test [8] was over 25 µM each time. For the same molecule, the TGI in test [1], in test [2], in test [3], in test [4], in test [5] and in test [6] was over 25 µM throughout. Besides, the TGI in test [7] and in test [8] was over 25 µM in each case.

On to `Cc1cc(N2CCCCC2)nc(N(CCNc2ccnc3cc(Cl)ccc23)Cc2ccco2)n1`, for which the GI50 is 1.66 µM in test [1]; 1.8 µM in test [2]; 1.69 µM in test [3]; 1.91 µM in test [4]; 2.4 µM in test [5]; 1.77 µM in test [6]. Moreover, the GI50 was 1.82 µM in test [7] and 1.94 µM in test [8]. For the same molecule, the TGI is 3.07 µM in test [1]; 3.52 µM in test [2]; 3.96 µM in test [3]; 4.97 µM in test [4]; 6.84 µM in test [5]; 4.02 µM in test [6]. The TGI in test [7] is 4.32 µM; in test [8] it was 4.08 µM.

As for `O=c1cc(CNc2cc(F)cc(F)c2)c2ccc(I)cc2[nH]1`, the GI50 was 1.05 µM in test [1]; 0.108 µM in test [2]; 6.36 µM in test [4]; 16.2 µM in test [5]; 0.129 µM in test [6]; 1.01 µM in test [7]. For the same molecule, the GI50 in test [8] was over 100 µM. Besides, the TGI in test [1] was over 100 µM; in test [2], 0.499 µM; in test [3] it was over 100 µM; in test [4], over 100 µM; in test [5] it was over 100 µM; in test [6] it was over 100 µM. The TGI in test [7] and in test [8] was over 100 µM each time.

`NC(=O)[C@H]1CCN(c2ncnc(N)c2F)C[C@@H]1N1CCC[C@@H](Nc2cc(Cl)cc(C(F)(F)F)c2)C1=O`: the GI50 in test [1] is 21.8 µM; in test [2], 14.3 µM; in test [3], 18.4 µM; in test [4], 20.8 µM; in test [5] it was 13.5 µM; in test [6], 28.1 µM. For the same molecule, the figures for the GI50 in test [7] and in test [8] were 7.7 µM and 13.5 µM, respectively. Moreover, the TGI in test [1] is over 100 µM; in test [2] it was 39.5 µM; in test [3], 70 µM; in test [4] it was 65.8 µM; in test [5] it was 59.3 µM; in test [6] it was 83.8 µM. The TGI in test [7] worked out at 76 µM; in test [8], 39 µM.

With `N#Cc1ncc(/N=C/c2ccc(N(CCCl)CCCl)cc2)s1`, the GI50 was 4.52 µM in test [1]; 28.4 µM in test [2]; 0.897 µM in test [3]; 5.53 µM in test [4]; 17.5 µM in test [5]; 0.543 µM in test [6]. In addition, the GI50 in test [7] was 6.71 µM; in test [8], 23.2 µM. For the same molecule, the TGI was 20.3 µM in test [1]; over 100 µM in test [2]; 7.71 µM in test [3]; over 100 µM in test [4]; over 100 µM in test [5]; over 100 µM in test [6]. The figures for the TGI in test [7] and in test [8] were over 100 µM and 97.4 µM, respectively.

Turning to `CCN(CC)c1ccc(/C=C/c2cc(C)c3ccccc3n2)cc1`, the GI50 in test [1] was 4.51 µM; in test [2], 0.328 µM; in test [3] it was 11.9 µM; in test [4] it was 3.43 µM; in test [5], 7.09 µM; in test [6], 1.53 µM. Besides, the GI50 in test [7] is 4.46 µM; in test [8], 4.47 µM. Also, the TGI is 16.2 µM in test [1]; 1.9 µM in test [2]; 91.3 µM in test [3]; 39.3 µM in test [4]; 75.3 µM in test [5]; 12.1 µM in test [6]. For the same molecule, the figures for the TGI in test [7] and in test [8] were over 100 µM and 13.8 µM, respectively.

Regarding `Fc1ccc(-c2nc3n(c2-c2ccncc2)CCS3)cc1`, the GI50 in test [1] was over 25 µM; in test [2], over 25 µM; in test [3], over 16.4 µM; in test [4], over 25 µM; in test [5] it was over 25 µM; in test [6], over 25 µM. Moreover, the figures for the GI50 in test [7] and in test [8] were 13.3 µM and over 25 µM, respectively. Besides, the TGI in test [1], in test [2], in test [3], in test [4], in test [5] and in test [6] was over 25 µM each time. The TGI in test [7] and in test [8] was over 25 µM in each case.

Consider `O=C1C(Cl)=C(N/N=c2/[nH][nH]/c(=N/NC3=C(Cl)C(=O)c4ccccc4C3=O)c3ccccc23)C(=O)c2ccccc21`, for which the GI50 was 17.4 µM in test [1]; 17.8 µM in test [2]; 17.8 µM in test [3]; 17.3 µM in test [4]; 18.7 µM in test [5]; 9.97 µM in test [6]. In test [7], the GI50 was 6.71 µM. Besides, the TGI amounted to 32.3 µM in test [1]; 36.6 µM in test [2]; 44 µM in test [3]; 36.9 µM in test [4]; 39.1 µM in test [5]; 59.1 µM in test [6]. In test [7], the TGI turned out to be 36.8 µM.
